Measurements as given in PubChem BioAssay (NCI).
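Five concentrations, 48 hours, 96-well plates. GI50: concentration for 50% inhibition of growth. The concentration for full growth arrest is given as TGI.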

Legend:
Experiment in all cases: NCI tumour cell line growth inhibition, 48 h
786-0 renal = tested on: 786-0 renal
A498 renal = tested on: A498 renal
A549 NSCLC = tested on: A549 NSCLC
ACHN renal = tested on: ACHN renal
BT-549 breast = tested on: BT-549 breast
CAKI-1 renal = tested on: CAKI-1 renal
CCRF-CEM leukemia = tested on: CCRF-CEM leukemia
COLO 205 colon = tested on: COLO 205 colon
DU-145 prostate = tested on: DU-145 prostate
EKVX NSCLC = tested on: EKVX NSCLC
HCC-2998 colon = tested on: HCC-2998 colon
HCT-116 colon = tested on: HCT-116 colon
HCT-15 colon = tested on: HCT-15 colon
HL-60(TB) leukemia = tested on: HL-60(TB) leukemia
HOP-62 NSCLC = tested on: HOP-62 NSCLC
HOP-92 NSCLC = tested on: HOP-92 NSCLC
HS 578T breast = tested on: HS 578T breast
HT29 colon = tested on: HT29 colon
IGROV1 ovarian = tested on: IGROV1 ovarian
K-562 leukemia = tested on: K-562 leukemia
KM12 colon = tested on: KM12 colon
LOX IMVI melanoma = tested on: LOX IMVI melanoma
M14 melanoma = tested on: M14 melanoma
MALME-3M melanoma = tested on: MALME-3M melanoma
MCF7 breast = tested on: MCF7 breast
MDA-MB-231 breast = tested on: MDA-MB-231 breast
MDA-MB-435 = tested on: MDA-MB-435
MOLT-4 leukemia = tested on: MOLT-4 leukemia
NCI-H226 lung = tested on: NCI-H226 lung
NCI-H23 lung = tested on: NCI-H23 lung
NCI-H460 lung = tested on: NCI-H460 lung
NCI-H522 lung = tested on: NCI-H522 lung
NCI/ADR-RES ovarian = tested on: NCI/ADR-RES ovarian
OVCAR-3 ovarian = tested on: OVCAR-3 ovarian
OVCAR-4 ovarian = tested on: OVCAR-4 ovarian
OVCAR-5 ovarian = tested on: OVCAR-5 ovarian
OVCAR-8 ovarian = tested on: OVCAR-8 ovarian
PC-3 prostate = tested on: PC-3 prostate
RPMI-8226 leukemia = tested on: RPMI-8226 leukemia
RXF 393 renal = tested on: RXF 393 renal
SF-268 CNS = tested on: SF-268 CNS
SF-295 CNS = tested on: SF-295 CNS
SK-MEL-2 melanoma = tested on: SK-MEL-2 melanoma
SK-MEL-28 melanoma = tested on: SK-MEL-28 melanoma
SK-MEL-5 melanoma = tested on: SK-MEL-5 melanoma
SK-OV-3 ovarian = tested on: SK-OV-3 ovarian
SN12C renal = tested on: SN12C renal
SNB-19 CNS = tested on: SNB-19 CNS
SNB-75 CNS = tested on: SNB-75 CNS
SR leukemia = tested on: SR leukemia
SW-620 colon = tested on: SW-620 colon
T-47D breast = tested on: T-47D breast
U251 CNS = tested on: U251 CNS
UACC-257 melanoma = tested on: UACC-257 melanoma
UACC-62 melanoma = tested on: UACC-62 melanoma
UO-31 renal = tested on: UO-31 renal
SF-539 CNS = tested on: SF-539 CNS
TK-10 renal = tested on: TK-10 renal

`Nc1nc(NCC2(CO)CC2)cc(=O)[nH]1` gave a TGI (786-0 renal) greater than 100 µM, a TGI (A498 renal) greater than 100 µM and a TGI (A549 NSCLC) greater than 100 µM. For the same molecule, the TGI (ACHN renal) was greater than 100 µM, the TGI (BT-549 breast) was greater than 100 µM and the TGI (CAKI-1 renal) was greater than 100 µM. It also gave a TGI (CCRF-CEM leukemia) greater than 100 µM, a TGI (COLO 205 colon) greater than 100 µM and a TGI (DU-145 prostate) greater than 100 µM. The TGI (EKVX NSCLC) was greater than 100 µM, the TGI (HCC-2998 colon) was greater than 100 µM and the TGI (HCT-116 colon) was greater than 100 µM. It also gave a TGI (HCT-15 colon) greater than 100 µM, a TGI (HL-60(TB) leukemia) greater than 100 µM and a TGI (HOP-62 NSCLC) greater than 100 µM. It also gave a TGI (HOP-92 NSCLC) greater than 100 µM, a TGI (HS 578T breast) greater than 100 µM and a TGI (HT29 colon) greater than 100 µM. The TGI (IGROV1 ovarian) was greater than 100 µM, the TGI (K-562 leukemia) was greater than 100 µM and the TGI (KM12 colon) was greater than 100 µM. The TGI (LOX IMVI melanoma) was greater than 100 µM, the TGI (M14 melanoma) was greater than 100 µM and the TGI (MALME-3M melanoma) was greater than 100 µM. It also gave a TGI (MCF7 breast) greater than 100 µM, a TGI (MDA-MB-231 breast) greater than 100 µM and a TGI (MDA-MB-435) greater than 100 µM. For the same molecule, the TGI (MOLT-4 leukemia) was greater than 100 µM, the TGI (NCI-H226 lung) was greater than 100 µM and the TGI (NCI-H23 lung) was greater than 100 µM. It also gave a TGI (NCI-H460 lung) greater than 100 µM, a TGI (NCI-H522 lung) greater than 100 µM and a TGI (NCI/ADR-RES ovarian) greater than 100 µM. It also gave a TGI (OVCAR-3 ovarian) greater than 100 µM, a TGI (OVCAR-4 ovarian) greater than 100 µM and a TGI (OVCAR-5 ovarian) greater than 100 µM. It also gave a TGI (OVCAR-8 ovarian) greater than 100 µM, a TGI (PC-3 prostate) greater than 100 µM and a TGI (RPMI-8226 leukemia) greater than 100 µM. It also gave a TGI (RXF 393 renal) greater than 100 µM, a TGI (SF-268 CNS) greater than 100 µM and a TGI (SF-295 CNS) greater than 100 µM. For the same molecule, the TGI (SK-MEL-2 melanoma) was greater than 100 µM, the TGI (SK-MEL-28 melanoma) was greater than 100 µM and the TGI (SK-MEL-5 melanoma) was greater than 100 µM. For the same molecule, the TGI (SK-OV-3 ovarian) was greater than 100 µM, the TGI (SN12C renal) was greater than 100 µM and the TGI (SNB-19 CNS) was greater than 100 µM. The TGI (SNB-75 CNS) was greater than 100 µM, the TGI (SR leukemia) was greater than 100 µM and the TGI (SW-620 colon) was greater than 100 µM. For the same molecule, the TGI (T-47D breast) was greater than 100 µM, the TGI (U251 CNS) was greater than 100 µM and the TGI (UACC-257 melanoma) was greater than 100 µM. For the same molecule, the TGI (UACC-62 melanoma) was greater than 100 µM and the TGI (UO-31 renal) was greater than 100 µM.

Molecule `CCOC(=O)/C=C(/C)Sc1cc(O)c2ccccc2c1O` has a GI50 (786-0 renal) of 15.2 µM, a TGI (786-0 renal) of 28.6 µM and a GI50 (A498 renal) of 22.8 µM. The TGI (A498 renal) was 56.3 µM, the GI50 (A549 NSCLC) was 2.5 µM and the TGI (A549 NSCLC) was 5.99 µM. The GI50 (ACHN renal) was 2.78 µM, the TGI (ACHN renal) was 9.82 µM and the GI50 (BT-549 breast) was 2.93 µM. For the same molecule, the TGI (BT-549 breast) was 10.5 µM, the GI50 (CAKI-1 renal) was 7.33 µM and the TGI (CAKI-1 renal) was 20 µM. It also gave a GI50 (CCRF-CEM leukemia) of 2.73 µM, a TGI (CCRF-CEM leukemia) of 6.83 µM and a GI50 (COLO 205 colon) of 7.22 µM. For the same molecule, the TGI (COLO 205 colon) was 20.7 µM, the GI50 (DU-145 prostate) was 1.86 µM and the TGI (DU-145 prostate) was 3.44 µM. For the same molecule, the GI50 (EKVX NSCLC) was 3.89 µM, the TGI (EKVX NSCLC) was 21.2 µM and the GI50 (HCC-2998 colon) was 16.2 µM. For the same molecule, the TGI (HCC-2998 colon) was 31.1 µM, the GI50 (HCT-116 colon) was 2.05 µM and the TGI (HCT-116 colon) was 4.95 µM. For the same molecule, the GI50 (HCT-15 colon) was 2.54 µM, the TGI (HCT-15 colon) was 8.83 µM and the GI50 (HL-60(TB) leukemia) was 2.29 µM. For the same molecule, the TGI (HL-60(TB) leukemia) was 5.72 µM, the GI50 (HOP-62 NSCLC) was 3.02 µM and the TGI (HOP-62 NSCLC) was 12.9 µM. The GI50 (HOP-92 NSCLC) was 3.21 µM, the TGI (HOP-92 NSCLC) was 11.9 µM and the GI50 (HS 578T breast) was 2.26 µM. The TGI (HS 578T breast) was 6.58 µM, the GI50 (HT29 colon) was 19.2 µM and the TGI (HT29 colon) was 48.4 µM. It also gave a GI50 (IGROV1 ovarian) of 2.26 µM, a TGI (IGROV1 ovarian) of 17.8 µM and a GI50 (K-562 leukemia) of 2.48 µM. The TGI (K-562 leukemia) was 6.68 µM, the GI50 (KM12 colon) was 12.9 µM and the TGI (KM12 colon) was 26.8 µM. For the same molecule, the GI50 (LOX IMVI melanoma) was 2.14 µM, the TGI (LOX IMVI melanoma) was greater than 23.1 µM and the GI50 (M14 melanoma) was 1.76 µM. The TGI (M14 melanoma) was 3.48 µM, the GI50 (MALME-3M melanoma) was 1.93 µM and the TGI (MALME-3M melanoma) was 3.71 µM. It also gave a GI50 (MCF7 breast) of 1.54 µM, a TGI (MCF7 breast) of 3.59 µM and a GI50 (MDA-MB-231 breast) of 2.67 µM. For the same molecule, the TGI (MDA-MB-231 breast) was 15.3 µM, the GI50 (MDA-MB-435) was 1.75 µM and the TGI (MDA-MB-435) was 3.28 µM. For the same molecule, the GI50 (MOLT-4 leukemia) was 2.33 µM, the TGI (MOLT-4 leukemia) was 7.08 µM and the GI50 (NCI-H226 lung) was 14.5 µM. For the same molecule, the TGI (NCI-H226 lung) was 32.8 µM, the GI50 (NCI-H23 lung) was 2.07 µM and the TGI (NCI-H23 lung) was 5.67 µM. For the same molecule, the GI50 (NCI-H460 lung) was 13.9 µM, the TGI (NCI-H460 lung) was 30.4 µM and the GI50 (NCI-H522 lung) was 1.73 µM. The TGI (NCI-H522 lung) was 4.66 µM, the GI50 (NCI/ADR-RES ovarian) was 3.99 µM and the TGI (NCI/ADR-RES ovarian) was 25.2 µM. The GI50 (OVCAR-3 ovarian) was 2 µM, the TGI (OVCAR-3 ovarian) was 5.1 µM and the GI50 (OVCAR-4 ovarian) was 3.36 µM. For the same molecule, the TGI (OVCAR-4 ovarian) was 13.2 µM, the GI50 (OVCAR-5 ovarian) was 17.5 µM and the TGI (OVCAR-5 ovarian) was 34 µM. It also gave a GI50 (OVCAR-8 ovarian) of 2.99 µM, a TGI (OVCAR-8 ovarian) of 12.9 µM and a GI50 (PC-3 prostate) of 4.59 µM. The TGI (PC-3 prostate) was 22.8 µM, the GI50 (RPMI-8226 leukemia) was 2.29 µM and the TGI (RPMI-8226 leukemia) was 9.09 µM. The GI50 (RXF 393 renal) was 2.28 µM, the TGI (RXF 393 renal) was 6.34 µM and the GI50 (SF-268 CNS) was 4.24 µM. For the same molecule, the TGI (SF-268 CNS) was 14.6 µM, the GI50 (SF-295 CNS) was 12.4 µM and the TGI (SF-295 CNS) was 26.4 µM. It also gave a GI50 (SF-539 CNS) of 4.84 µM, a TGI (SF-539 CNS) of 11.7 µM and a GI50 (SK-MEL-28 melanoma) of 2.34 µM. It also gave a TGI (SK-MEL-28 melanoma) of 5.45 µM, a GI50 (SK-MEL-5 melanoma) of 1.59 µM and a TGI (SK-MEL-5 melanoma) of 2.99 µM. For the same molecule, the GI50 (SK-OV-3 ovarian) was 13.8 µM, the TGI (SK-OV-3 ovarian) was 44.5 µM and the GI50 (SN12C renal) was 2.48 µM. The TGI (SN12C renal) was 7.29 µM, the GI50 (SNB-19 CNS) was 4.05 µM and the TGI (SNB-19 CNS) was 17 µM. The GI50 (SNB-75 CNS) was 2.55 µM, the TGI (SNB-75 CNS) was 6.94 µM and the GI50 (SR leukemia) was 1.3 µM. It also gave a TGI (SR leukemia) of 4.16 µM, a GI50 (SW-620 colon) of 2.3 µM and a TGI (SW-620 colon) of 5.39 µM. It also gave a GI50 (T-47D breast) of 2.23 µM, a TGI (T-47D breast) of 13.1 µM and a GI50 (TK-10 renal) of 8.29 µM. The TGI (TK-10 renal) was 17.9 µM, the GI50 (U251 CNS) was 4.31 µM and the TGI (U251 CNS) was 24 µM. For the same molecule, the GI50 (UACC-257 melanoma) was 1.8 µM, the TGI (UACC-257 melanoma) was 3.87 µM and the GI50 (UACC-62 melanoma) was 3.67 µM. For the same molecule, the TGI (UACC-62 melanoma) was 14 µM, the GI50 (UO-31 renal) was 1.59 µM and the TGI (UO-31 renal) was 11.1 µM.
